Laboratory results as given in paper PMC7529893, “Structural basis for substrate recognition and chemical inhibition of oncogenic MAGE ubiquitin ligases” (Nature Communications, 2020).
Entries after “also recorded” stand apart in the source; their conditions may differ.

Tests used:
[1] = target: T1, His-SUMO-MAGE-A11 MHD (Homo sapiens, UniProt P43364); assay: Nano-differential scanning fluorimetry (NanoDSF); format: binding; conditions: six-point dose response, protein 10 µM
T1 construct: made in house; host or cells: bacteria
T1 sequence (P43364 218-429): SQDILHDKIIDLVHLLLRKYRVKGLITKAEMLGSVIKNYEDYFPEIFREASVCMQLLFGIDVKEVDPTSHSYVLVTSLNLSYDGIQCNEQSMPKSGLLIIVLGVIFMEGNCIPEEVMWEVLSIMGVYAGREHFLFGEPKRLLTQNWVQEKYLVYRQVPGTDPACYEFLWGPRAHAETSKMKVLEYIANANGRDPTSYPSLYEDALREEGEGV
Method: For NanoDSF measurements, a Prometheus NT.48 instrument (NanoTemper Technologies) was used to determine the melting temperatures. Triplicate samples were prepared in a standard 384-well PCR plate with His-SUMO-MAGE-A11 at 10 µM and ligand concentrations as noted. After incubating the protein and ligands for at least 30 min, capillaries were filled with 10 μL of sample and placed on the sample holder. DMSO was used as a negative reference control while PCF11_6 peptide was used as a positive control validating the assay. A temperature gradient of 1 °C min^−1 from 25 to 95 °C was applied and the intrinsic protein fluorescence at 330 and 350 nm was recorded. The 350 nm to 330 nm ratios of fluorescence measurements were used to calculate the Tm values of each sample using the Nanotemper PR.ThermControl software. Data were further analyzed and plotted using GraphPad Prism (v 8.3.1).

[2] = tested on: MAGE-A11-knockout DAOY cells or those reconstituted with MAGE-A11; assay: Cell viability, alamarBlue, DAOY cells; format: cell-based
Method: To assess cell viability after SJ521054 treatment, 1 × 10^4 cells/ml were treated with SJ521054 (0–40 μM) and incubated for 24 h prior to changing the media and adding alamarBlue (Thermo Fisher Scientific) and incubating for 4 h at 37 °C. Plates were read by measuring the fluorescence with excitation wavelength at 540 nm and emission wavelength at 590 nm on an Enspire plate reader.

[3] = target: T2, MAGE-A11 binding to PCF11 (Homo sapiens, UniProt P43364); assay: Pull-down (co-IP) of FLAG-MAGE-A11 with endogenous PCF11 in cell lysate; conditions: 100 µM, 24 h, FLAG-MAGE-A11 HEK293FT cell lysates
T2 construct: expressed in transfected cells
T2 sequence (P43364 1-429): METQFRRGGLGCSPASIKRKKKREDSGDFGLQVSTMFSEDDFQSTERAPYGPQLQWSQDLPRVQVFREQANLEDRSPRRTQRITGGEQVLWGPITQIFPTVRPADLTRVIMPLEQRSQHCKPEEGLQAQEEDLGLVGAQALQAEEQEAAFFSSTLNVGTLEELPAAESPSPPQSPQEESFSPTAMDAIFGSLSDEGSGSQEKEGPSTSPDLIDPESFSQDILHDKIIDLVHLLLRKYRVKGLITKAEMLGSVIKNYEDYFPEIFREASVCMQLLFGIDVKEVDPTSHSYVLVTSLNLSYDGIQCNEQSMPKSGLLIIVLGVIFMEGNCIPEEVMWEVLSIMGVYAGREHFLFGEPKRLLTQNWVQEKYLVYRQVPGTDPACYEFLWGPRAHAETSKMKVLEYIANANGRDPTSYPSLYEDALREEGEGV
Method: HEK293FT cells were plated in 6 cm^2 plates and transfected 24 h later with Effectene (QIAGEN) according to the manufacturer’s protocol. After 48 h, cells were washed and scraped in cold PBS, spun down, and resuspended in lysis buffer (50 mM Tris pH 7.4, 150 mM NaCl, 1 mM DTT, 0.1% (v/v) Triton X-100, 10 mM N-Ethylmaleimide, and 1X protease inhibitor cocktail (Sigma)). Cell lysates were incubated with appropriate antibodies overnight at 4 °C and then with protein A beads for 2 h at 4 °C. Beads were then washed with lysis buffer three times and eluted with 2X SDS sample buffer.
For western blotting, samples in SDS sample buffer were resolved on SDS-PAGE gels and then transferred to nitrocellulose membranes prior to blocking in TBST with 5% (w/v) milk powder or 3% (w/v) bovine serum albumin and probing with primary and secondary antibodies (GE Healthcare). Primary antibodies were: anti-Myc (Sigma, #C3956), anti-FLAG (Sigma, #F3165), anti-HUWE1 (Novus Biologicals, #NB 100-652), anti-PCF11 (Bethyl Laboratories, #A303-706A), anti-GAPDH (Cell Signaling Technology, #2118), anti-TRIM28 (Abcam, #ab22553), anti-AMPKα1 (Cell Signaling Technology, #2795), and anti-MMS19 (Proteintech, #16015-1-AP) and Tb-anti-GST (Invitrogen, #PV3551). Secondary antibodies were: Donkey Anti-Rabbit IgG (GE Healthcare, NA934V) and Sheep Anti-Mouse IgG (GE Healthcare, NA931V). […]

[4] = tested on: Caco-2 cells; assay: High throughput Caco-2 permeability; format: in vitro ADME
Method: High throughput Caco-2 permeability was performed in the TranswellR 0.4 µm polycarbonate membrane 96-well system with modified methods. Caco-2 cells were maintained at 37 °C in a humidified incubator with an atmosphere of 5% CO2. The cells were cultured in 75 cm^2 flasks with Dulbecco’s Modified Eagle’s Medium (DMEM) containing 10% (v/v) FBS, 1% (v/v) non-essential amino acids (NEAA), 100 units/ml of penicillin, and 100 µg/ml of streptomycin. The Caco-2 cells were seeded onto inserts at a density of 2 × 10^4 cells/insert separately. The medium in the wells was exchanged each other day, and the trans epithelial electrical resistance (TEER) value was measured using an epithelial voltohm meter (Millipore, Billerica, Massachusetts). […] For transport experiments, each cultured monolayer on the 96-well plate was washed twice with a transport buffer (HBSS containing 25 mM HEPES, pH 7.4). The permeability assay was initiated by the addition of each compound solution (10 µmol/l) into inserts (apical side, A) or receivers (basolateral side, B). The Caco-2 cell monolayers were incubated for 2 h at 37 °C. Fractions were collected from receivers (if apical to basal permeability) or inserts (if basal to apical permeability), and concentrations were assessed by UPLC/MS (Waters; Milford, MA). All compounds were tested in triplicates. The A → B (or B → A) apparent permeability coefficients (Papp) of each compound were calculated using the equation, Papp = dQ/dt × 1/AC0, where dQ/dt equals the flux of a drug across the monolayer, A equals the total insert well surface area, and C0 is the initial concentration of substrate in the donor compartment. The efflux ratio was determined by dividing the Papp in the B-A direction by the Papp in the A-B direction.

FC(F)(F)c1ccc2c(NCCCNCc3ccc4[nH]ccc4c3)ccnc2c1 [SJ000521054-02]
thermal stabilization of MAGE-A11 (NanoDSF) ([1]; listed as SJ521054): showed stabilization of MAGE-A11; also recorded: stabilized MAGE-A11
cell viability ([2]; DAOY cells with MAGE-A11 against vector control, 0–40 μM, 24 h, listed as SJ521054): reduces viability of MAGE-A11 expressing DAOY cancer cells; also recorded: decreased the viability of MAGE-A11 expressing DAOY and HEK293FT cells to a much greater extent than vector control MAGE-A11-negative cells
cytotoxicity independent of MAGE-A11 ([2]; higher concentrations, both cell lines (DAOY and HEK293)): shows cytotoxicity to both cell lines
MAGE-A11 binding to PCF11 in cell lysate ([3]; listed as SJ521054): inhibited MAGE-A11 binding to PCF11 in cell lysates

c1ccc2c(NCCCNCc3ccc4[nH]ccc4c3)ccnc2c1 [SJ001008066-01]
thermal stabilization of MAGE-A11 (NanoDSF) ([1]; listed as SJ1008066): showed stabilization of MAGE-A11; also recorded: stabilized MAGE-A11
MAGE-A11 binding to PCF11 in cell lysate ([3]; listed as SJ1008066): inhibited MAGE-A11 binding to PCF11 in cell lysates
cell permeability in words [4]: cell permeable
